# Results from ChEMBL document CHEMBL4414638, “Structure-Activity Relationship of Peptide-Conjugated Chloramphenicol for Inhibiting Escherichia coli” (J Med Chem, 2019).
# The source made the active and inactive calls. The rule behind the calls is not given here. *1 amine or outer side, *2 acyl side, *3 side chain or, on linkers, in order; H or OH if unused. Where a SMILES comes first, the peptide text is derived from it. [ ]: non-standard residue; d: D form. The star is where a group is joined. X1 = O=C(CCC(=O)[*:2])OC[C@@H](N[*:1])[C@H](O)c1ccc([N+](=O)[O-])cc1; Dichloroacetyl = O=C(C(Cl)Cl)*
# Assays:
# Escherichia coli [1] = assay: Antibacterial activity against Escherichia coli K-12 assessed as reduction in bacterial growth incubated for 16 hrs; type: functional; conditions: K-12, 16 h
# [2] = Cytotoxicity in human HS5 cells assessed as reduction in cell viability at 20 uM to 2 mM incubated up to […]rs relative to chloramphenicol; type: cell-based
# HEK293 = assay: Cytotoxicity in human HEK293 cells assessed as reduction in cell viability at 20 uM […] relative to chloramphenicol; type: cell-based; conditions: hek293, 20 µM
# Escherichia coli [3] = assay: Antibacterial activity against Escherichia coli K-12 assessed as reduction in bacterial growth incubated for 16 hrs in presence of porcine liver esterase; type: functional; conditions: K-12, 16 h
# Escherichia coli [4] = assay: Antibacterial activity against Escherichia coli K-12 assessed as reduction in bacterial growth incubated for 16 hrs in absence of porcine liver esterase; type: functional; conditions: K-12, 16 h
# [5] = Drug metabolism in Escherichia coli K-12 lysates assessed as esterase-mediated drug hydrolysis at 200 uM incubated up to 24 hrs by HPLC analysis; type: ADME, subcellular, Lysate; conditions: escherichia coli k-12, isolated protein
# [6] = Drug metabolism in human HepG2 cells lysates assessed as esterase-mediated drug hydrolysis at 200 uM incubated up to 24 hrs by HPLC analysis; type: ADME, subcellular, Lysate; conditions: hepg2, 24 h
# [7] = Drug metabolism in Escherichia coli K-12 lysates assessed as esterase-mediated drug hydrolysis by measuring apparent first-order rate constant at 200 uM incubated up to 24 hrs by HPLC analysis; type: ADME, subcellular, Lysate; conditions: escherichia coli k-12, isolated protein
# Escherichia coli [8] = assay: Antibacterial activity against ydgR gene deficient Escherichia coli assessed as reduction in bacterial growth at 0.1 to 100 uM incubated for 16 hrs; type: functional, organism-based
# Escherichia coli [9] = assay: Antibacterial activity against fepA gene deficient Escherichia coli assessed as reduction in bacterial growth at 0.1 to 100 uM incubated for 16 hrs; type: functional, organism-based
# Escherichia coli [10] = assay: Antibacterial activity against ompF gene deficient Escherichia coli assessed as reduction in bacterial growth at 0.1 to 100 uM incubated for 16 hrs; type: functional, organism-based
# Escherichia coli [11] = assay: Antibacterial activity against acrA gene deficient Escherichia coli assessed as reduction in bacterial cell viability at 0.1 to 100 uM incubated for 16 hrs relative to control; type: functional
# Escherichia coli [12] = assay: Antibacterial activity against bioH gene deficient Escherichia coli assessed as reduction in bacterial growth at 0.1 to 100 uM incubated for 16 hrs; type: functional, organism-based
# Escherichia coli [13] = assay: Antibacterial activity against yjfP gene deficient Escherichia coli assessed as reduction in bacterial growth at 0.1 to 100 uM incubated for 16 hrs; type: functional, organism-based
# Escherichia coli [14] = assay: Antibacterial activity against frsA gene deficient Escherichia coli assessed as reduction in bacterial growth at 0.1 to 100 uM incubated for 16 hrs; type: functional, organism-based
# Escherichia coli [15] = assay: Antibacterial activity against ybfF gene deficient Escherichia coli assessed as reduction in bacterial growth at 0.1 to 100 uM incubated for 16 hrs; type: functional, organism-based
# Escherichia coli [16] = assay: Antibacterial activity against yfbB gene deficient Escherichia coli assessed as reduction in bacterial growth at 0.1 to 100 uM incubated for 16 hrs; type: functional, organism-based
# Escherichia coli [17] = assay: Antibacterial activity against ypfH gene deficient Escherichia coli assessed as reduction in bacterial growth at 0.1 to 100 uM incubated for 16 hrs; type: functional, organism-based
# Escherichia coli [18] = assay: Antibacterial activity against yeiG gene deficient Escherichia coli assessed as reduction in bacterial growth at 0.1 to 100 uM incubated for 16 hrs; type: functional, organism-based
# Escherichia coli [19] = assay: Antibacterial activity against yqiA gene deficient Escherichia coli assessed as reduction in bacterial growth at 0.1 to 100 uM incubated for 16 hrs; type: functional, organism-based
# [20] = Drug metabolism in human serum assessed as formation of chloramphenicol at 200 uM at 37 degC after 24 hrs by LC-MS analysis relative to control
SMILES,MIC (Escherichia coli [1]) [µM],Activity [2],Activity (HEK293),also measured
CNC(=O)CNC(=O)CNC(=O)CCC(=O)OC[C@@H](NC(=O)C(Cl)Cl)[C@H](O)c1ccc([N+](=O)[O-])cc1,20,Non-Toxic,Toxic,
O=C(O)CNC(=O)CNC(=O)[C@H](Cc1ccccc1)NC(=O)CCC(=O)OC[C@@H](NC(=O)C(Cl)Cl)[C@H](O)c1ccc([N+](=O)[O-])cc1,80,,,
C[C@@H](NC(=O)[C@@H](C)NC(=O)CCC(=O)OC[C@@H](NC(=O)C(Cl)Cl)[C@H](O)c1ccc([N+](=O)[O-])cc1)C(=O)O,80,,,
NCCCC[C@@H](NC(=O)[C@@H](CCCCN)NC(=O)CCC(=O)OC[C@@H](NC(=O)C(Cl)Cl)[C@H](O)c1ccc([N+](=O)[O-])cc1)C(=O)O,200,,,MIC (Escherichia coli [3]): 100 µM; MIC (Escherichia coli [4]): 200 µM; Drug metabolism [5]: Metabolite_Detected; Drug metabolism [6]: Metabolite_Detected; K [7]: 0.317 h⁻¹; Activity (Escherichia coli [8]): Active; Activity (Escherichia coli [9]): Active; Activity (Escherichia coli [10]): Active; Activity (Escherichia coli [11]): 20%; Activity (Escherichia coli [12]): inactive; Activity (Escherichia coli [13]): inactive; Activity (Escherichia coli [14]): inactive; Activity (Escherichia coli [15]): inactive; Activity (Escherichia coli [16]): inactive; Activity (Escherichia coli [17]): inactive; Activity (Escherichia coli [18]): inactive; Activity (Escherichia coli [19]): inactive; Drug metabolism [20]: Metabolite_Detected
O=C(N[C@H](CO)[C@H](O)c1ccc([N+](=O)[O-])cc1)C(Cl)Cl [CHLORAMPHENICOL],20,,Toxic,
O=C(O)C[C@H](NC(=O)[C@H](CC(=O)O)NC(=O)CCC(=O)OC[C@@H](NC(=O)C(Cl)Cl)[C@H](O)c1ccc([N+](=O)[O-])cc1)C(=O)O,200,,,
O=C(CCC(=O)OC[C@@H](NC(=O)C(Cl)Cl)[C@H](O)c1ccc([N+](=O)[O-])cc1)NCC(=O)NCC(=O)N[C@@H](Cc1ccccc1)C(=O)O,20,Non-Toxic,Toxic,
C[C@@H](NC(=O)[C@@H](C)NC(=O)[C@@H](C)NC(=O)CCC(=O)OC[C@@H](NC(=O)C(Cl)Cl)[C@H](O)c1ccc([N+](=O)[O-])cc1)C(=O)O,80,,,
O=C(O)CNC(=O)CNC(=O)CNC(=O)CNC(=O)CCC(=O)OC[C@@H](NC(=O)C(Cl)Cl)[C@H](O)c1ccc([N+](=O)[O-])cc1 (Dichloroacetyl-[X1]GGGG-OH),20,Non-Toxic,Toxic,
O=C(CCC(=O)OC[C@@H](NC(=O)C(Cl)Cl)[C@H](O)c1ccc([N+](=O)[O-])cc1)N[C@H](Cc1ccccc1)C(=O)N[C@H](Cc1ccccc1)C(=O)O,100,,,
C[C@@H](NC(=O)CNC(=O)CCC(=O)OC[C@@H](NC(=O)C(Cl)Cl)[C@H](O)c1ccc([N+](=O)[O-])cc1)C(=O)O,20,Non-Toxic,Toxic,
C[C@@H](NC(=O)CCC(=O)OC[C@@H](NC(=O)C(Cl)Cl)[C@H](O)c1ccc([N+](=O)[O-])cc1)C(=O)O,> 200,,,
COC(=O)CCC(=O)OC[C@@H](NC(=O)C(Cl)Cl)[C@H](O)c1ccc([N+](=O)[O-])cc1,> 200,,,
N=C(N)NCCC[C@@H](NC(=O)[C@@H](CCCNC(=N)N)NC(=O)CCC(=O)OC[C@@H](NC(=O)C(Cl)Cl)[C@H](O)c1ccc([N+](=O)[O-])cc1)C(=O)O,200,,,
NCCCC[C@@H](NC(=O)[C@@H](CCCCN)NC(=O)[C@@H](Cc1ccccc1)NC(=O)[C@@H](Cc1ccccc1)NC(=O)CCC(=O)OC[C@@H](NC(=O)C(Cl)Cl)[C@H](O)c1ccc([N+](=O)[O-])cc1)C(=O)O,200,,,
O=C(O)CNC(=O)[C@H](Cc1ccccc1)NC(=O)CNC(=O)CCC(=O)OC[C@@H](NC(=O)C(Cl)Cl)[C@H](O)c1ccc([N+](=O)[O-])cc1,20,Non-Toxic,Toxic,

SMILES,MIC (Escherichia coli [1]) [µM],Activity [2],Activity (HEK293),also measured
N=C(N)NCCC[C@@H](NC(=O)[C@@H](CCCNC(=N)N)NC(=O)[C@@H](Cc1ccccc1)NC(=O)[C@@H](Cc1ccccc1)NC(=O)CCC(=O)OC[C@@H](NC(=O)C(Cl)Cl)[C@H](O)c1ccc([N+](=O)[O-])cc1)C(=O)O,200,,,
O=C(O)C[C@@H](NC(=O)[C@@H](CC(=O)O)NC(=O)CCC(=O)OC[C@@H](NC(=O)C(Cl)Cl)[C@H](O)c1ccc([N+](=O)[O-])cc1)C(=O)O,> 200,,,
C[C@H](NC(=O)[C@H](C)NC(=O)CCC(=O)OC[C@@H](NC(=O)C(Cl)Cl)[C@H](O)c1ccc([N+](=O)[O-])cc1)C(=O)O,100,,,
O=C(O)CNC(=O)CNC(=O)CNC(=O)CNC(=O)CNC(=O)CCC(=O)OC[C@@H](NC(=O)C(Cl)Cl)[C@H](O)c1ccc([N+](=O)[O-])cc1 (Dichloroacetyl-[X1]GGGGG-OH),40,,,
O=C(O)CC[C@@H](NC(=O)[C@@H](CCC(=O)O)NC(=O)CCC(=O)OC[C@@H](NC(=O)C(Cl)Cl)[C@H](O)c1ccc([N+](=O)[O-])cc1)C(=O)O,> 200,,,
O=C(CCC(=O)OC[C@@H](NC(=O)C(Cl)Cl)[C@H](O)c1ccc([N+](=O)[O-])cc1)NCCOP(=O)(O)O,100,,,
C[C@H](NC(=O)[C@H](C)NC(=O)[C@H](C)NC(=O)CCC(=O)OC[C@@H](NC(=O)C(Cl)Cl)[C@H](O)c1ccc([N+](=O)[O-])cc1)C(=O)O,100,,,
O=C(CCC(=O)OC[C@@H](NC(=O)C(Cl)Cl)[C@H](O)c1ccc([N+](=O)[O-])cc1)NCCS(=O)(=O)O,40,,,
CC(C)C[C@@H](NC(=O)CNC(=O)CCC(=O)OC[C@@H](NC(=O)C(Cl)Cl)[C@H](O)c1ccc([N+](=O)[O-])cc1)C(=O)O,20,Non-Toxic,Toxic,
O=C(CCC(=O)OC[C@@H](NC(=O)C(Cl)Cl)[C@H](O)c1ccc([N+](=O)[O-])cc1)NCC(=O)NCC(=O)N[C@@H](Cc1ccccc1)C(=O)N[C@@H](Cc1ccccc1)C(=O)O,20,Non-Toxic,Toxic,
O=C(CCC(=O)OC[C@@H](NC(=O)C(Cl)Cl)[C@H](O)c1ccc([N+](=O)[O-])cc1)N[C@H](Cc1ccccc1)C(=O)N[C@H](Cc1ccccc1)C(=O)N[C@H](Cc1ccc2ccccc2c1)C(=O)O,> 200,,,
O=C(O)CCC(=O)OC[C@@H](NC(=O)C(Cl)Cl)[C@H](O)c1ccc([N+](=O)[O-])cc1 [CHLORAMPHENICOL SUCCINIC ACID],> 200,Non-Toxic,Toxic,
O=C(O)CNC(=O)CNC(=O)[C@@H](Cc1ccc2ccccc2c1)NC(=O)[C@@H](Cc1ccccc1)NC(=O)[C@@H](Cc1ccccc1)NC(=O)CCC(=O)OC[C@@H](NC(=O)C(Cl)Cl)[C@H](O)c1ccc([N+](=O)[O-])cc1,> 200,,,
O=C(O)C[C@H](NC(=O)CNC(=O)CCC(=O)OC[C@@H](NC(=O)C(Cl)Cl)[C@H](O)c1ccc([N+](=O)[O-])cc1)C(=O)O,20,Non-Toxic,Toxic,
O=C(CCC(=O)OC[C@@H](NC(=O)C(Cl)Cl)[C@H](O)c1ccc([N+](=O)[O-])cc1)NCC(=O)NCC(=O)N[C@H](Cc1ccccc1)C(=O)N[C@H](Cc1ccccc1)C(=O)O,20,Non-Toxic,Toxic,Drug metabolism [20]: Metabolite_Detected
